One molecule from patent US20140088144A1, “INHIBITING MICROBIAL INFECTIONS” (THE UNIVERSITY OF KANSAS, priority 2012, published 2014) can be followed below.

The target in one assay is VirF (Shigella flexneri, UniProt P0A2T1). Description: Shigella virB-lacZ reporter gene assay. Further details: endogenously expressed VirF in a Shigella strain carrying a virB-lacZ reporter construct; endogenous in cells; host or cells: S. flexneri strain BS536 (virB-lacZ). Type of assay: cell-based, S. flexneri. Here is the method: Colonies of S. flexneri strain BS536 that were red on TSA plates containing Congo red were grown overnight in Luria-Bertani broth at 30° C. to maintain low basal expression from the virB promoter. The overnight grown cultures were diluted 1:100 into 10 ml of the same medium with either 0.3% DMSO or different concentrations of SE-1 dissolved in DMSO (final concentration 0.3% DMSO). Cultures were grown at 37° C. in a shaking incubator to an OD600 of ˜0.4, centrifuged to pellet the cells and then resuspended in Z buffer for a two-fold concentration of the cells. Control cultures were grown at 30° C., a temperature at which virF expression is not induced (37), to illustrate the basal level of expression from the virB promoter region. β-Galactosidase assays were performed, with incubation with the substrate o-nitrophenyl-β-D-galactopyranoside (ONPG) was at room temperature. Activities are presented as a percentage of the uninhibited, DMSO-only control sample. Three independent assays were performed with two replicates in each assay.
Sequence of VirF (P0A2T1 whole entry): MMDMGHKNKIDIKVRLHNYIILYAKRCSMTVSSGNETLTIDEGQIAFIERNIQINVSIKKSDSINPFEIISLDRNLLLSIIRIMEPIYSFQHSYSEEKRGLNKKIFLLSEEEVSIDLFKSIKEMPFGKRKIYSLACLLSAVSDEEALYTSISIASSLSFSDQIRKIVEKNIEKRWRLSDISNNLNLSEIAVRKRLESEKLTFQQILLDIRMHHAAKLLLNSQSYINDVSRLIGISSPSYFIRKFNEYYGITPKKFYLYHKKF
Background: In a reporter assay the amount or activity of a reporter protein is the signal.

Assay [1] has as its system LacI-repressed hts-lacZ fusion. Put plainly: LacI-repressed hts-lacZ control reporter fusion (β-galactosidase). Format: cell-based, E. coli. Particulars: hts-lacZ control (SME3359). The source says:
The control strain for the secondary high-throughput screen and subsequent experiments was SME3359, and carries the LacI-repressed fusion and LacI-expressing pHG165lacI. The fusion consists of lacZ under the control of an artificial promoter (Phts) with an induced expression level similar to that of the induced rhaBAD operon. Phts is regulated by Lad and induced with IPTG. The Phts core promoter elements include a near-consensus −35 sequence and a −10 sequence followed by a lacO1 operator sequence that overlaps the transcription start site with the same spacing as lacO1 at lacZYA. To construct the upstream half of Phts, oligo 2829 was annealed to oligo 2788 and the primers were extended using the Expand High Fidelity PCR System (Roche Applied Science, Indianapolis, Ind.). The downstream half of the Phts promoter was constructed by similarly annealing and extending oligos 2789 and 2790.
The top hit identified in the screen was 1-ethyl-4-(nitromethyl)-3-quinolin-2-yl-4H-quinoline, Compound 2. […] Lysis/ONPG buffer (50 μL, as in Primary Screen) was added to each well and the plate was immediately placed into a PowerWave XS plate reader (BioTek Instruments, Inc., Winooski, Vt.), set to read the OD420 of each well every 15 min for 4 hr. […] Due to differences in kinetics of lacZ reporter expression, the rhaB-lacZ strains were analyzed at 4 hours and the hts-lacZ strain was analyzed at 1 hr. Percent activity was calculated for each condition as described above, using the single time point with appropriate OD420 levels for each strain. […] IC50 and maximal inhibition values were calculated using the XLfit add-in for Microsoft Excel (ID Business Solutions, Guildford, UK), and graphs were drawn using Prism (GraphPad, La Jolla, Calif.).
In vivo dose-response assays were performed using a procedure described previously. […] Bacterial cultures were mixed with varying concentrations of SE-1 (2.2% DMSO, final), induced with 6.5 mM IPTG for 3 h at 37° C., lysed and β-galactosidase activity was measured. […] IC50 values were calculated and graphs were drawn using Prism (GraphPad, La Jolla, Calif.).

The target of the next assay is T1, MBP-VirF (Shigella flexneri, UniProt P0A2T1).
T1 construct: made in house; host or cells: E. coli KS 1000, plasmid pMALvirF
T1 sequence (P0A2T1 whole entry): as above
Description: Fluorescence-based thermal shift assay (Sypro Orange), VirF. Type of assay: binding. Here is the method:
Binding of SE-1 to purified VirF was tested by comparing the VirF melting temperature (Tm) in the absence and presence of SE-1 using a thermal shift assay with the fluorescent dye Sypro Orange (Molecular Probes). This method is also known as differential scanning fluorimetry or DSF. As a control, we tested binding of SE-1 to the purified, unrelated, MBP-NS1-NTD protein (greater than 95% pure). […] The reactions were carried out in 0.1 ml PCR low profile 8-tube strips with optically clear flat caps (USA Scientific) in a StepOnePlus™ Real-Time PCR System (Applied Biosystems), heating from 25 to 99° C. in increments of 0.8° C. The data was analyzed using the Boltzmann sigmoidal model in the software Prism (GraphPad). Data points before and after the fluorescence intensity minimum and maximum, respectively, were excluded from fitting. The ΔTm values are the average of three independent experiments with two replicates in each experiment. A single, representative, experiment is shown.

Broadly, the IC50 is the point on the concentration scale where inhibition reaches its midpoint. Lower therefore signals greater potency.

Take `CCCCN1C=C(c2ccc3ccccc3n2)C(C[N+](=O)[O-])c2ccccc21` (stereo not drawn) [Compound 1, 1-butyl-4-(nitromethyl)-3-quinolin-2-yl-4H-quinoline]: the IC50 at VirF is approximately 30 µM. Besides, the “maximum inhibition of virB-lacZ expression” value on VirF (40 μM SE-1) is “greater than two fold”. For the same molecule, the “inhibition of the LacI-repressed fusion” value in assay [1] is listed as “small amount of non-specific inhibition”; in assay [1] (listed as SE-1), “some non-specific inhibition”. Further, the “ΔTm for VirF” value on MBP-VirF (40 μM SE-1) came to 0.15 °C. For the same molecule, on MBP-VirF (80 μM SE-1, 1 μM VirF), the “increase of Tm of VirF (ΔTm)” value amounted to 0.61 °C.
